Results: patent US11840521B2, “Modulators of Mas-related G-protein receptor X4 and related products and methods” (Escient Pharmaceuticals, Inc., priority 2019, dated 2023)
Read-outs that look alike come from different tables or passages of the source.

Target: MRGPRX4 (Homo sapiens, UniProt Q96LA9)
Assay: MRGPR X4 antagonist activity, IP-One Gq HTRF assay in stably transfected HEK cells (versus agonist bilirubin, deoxycholic acid, conjugated bilirubin, urobilin, obeticholic acid or BAR502)
Assay type: cell-based
Parameters: expressed in transfected cells; host or cells: HEK cells, stably transfected
Outline: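 Stably transfected HEK cells expressing human MRGPR X4, seeded overnight, given compounds as 10-point 1:3 curves from 10 uM final top, incubated 1 h at 37° C then 30 min at room temperature. IP-1 measured by IP-One Gq HTRF. IC50 derived from the HTRF ratio.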

[1] = versus 10 μM Bilirubin agonist, HEK cells expressing human MRGPR X4, read-out: MRGPR4 Antagonist Activity
[2] = versus 10 μM Bilirubin agonist, read-out: IC50 (Bilirubin agonist)
[3] = versus 20 μM deoxycholic acid, read-out: IC50 (Deoxycholic Acid agonist)
[4] = versus 20 μM obeticholic acid, read-out: IC50 (Obeticholic Acid Agonist)
[5] = versus 50 μM urobilin, read-out: IC50 (Urobilin Agonist)
[6] = versus 100 μM conjugated bilirubin, read-out: IC50 (Conjugated Bilirubin Agonist)

Sequence of MRGPRX4 (Q96LA9 whole entry): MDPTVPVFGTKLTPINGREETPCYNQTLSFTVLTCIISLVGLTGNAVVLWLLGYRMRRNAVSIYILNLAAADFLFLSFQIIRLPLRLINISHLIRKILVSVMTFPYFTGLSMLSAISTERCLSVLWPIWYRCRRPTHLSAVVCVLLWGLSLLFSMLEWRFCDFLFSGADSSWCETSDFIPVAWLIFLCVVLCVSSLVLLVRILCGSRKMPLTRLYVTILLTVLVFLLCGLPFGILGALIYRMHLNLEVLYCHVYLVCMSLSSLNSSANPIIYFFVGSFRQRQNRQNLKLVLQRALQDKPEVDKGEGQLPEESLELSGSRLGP

| IC50 [1] [nM] | SMILES | further results |
| --- | --- | --- |
| > 2500 | O=C(O)c1cccc(COc2ccccc2Cl)c1 [Compound 1-22] | – |
| < 100 | Cc1cc(Cl)ccc1OCc1cccc(C(=O)O)c1F [Compound 1-63] | – |
| < 100 | FC(F)(F)Oc1ccc(OCc2cccc(-c3nnn[nH]3)c2)c(Cl)c1 [Compound 17-8] | – |
| 500 to 1000 | O=C(N[C@H]1CC[C@H](O)CC1)c1cccc(COc2ccc(C(F)(F)F)cc2Cl)c1 [Compound 52-15] | – |
| > 2500 | O=C(O)c1cccc(COc2ccc(Oc3ccccc3)cc2)c1 [Compound 1-52] | – |
| < 100 | N#Cc1cc(COc2ccc(OC(F)(F)F)cc2Cl)cc(C(=O)O)c1 [Compound 32-4] | – |
| 1000 to 2500 | COc1c(COc2ccc(Cl)cc2Cl)cccc1C(=O)O [Compound 6-1, 3-((2,4-dichlorophenoxy)methyl)-2-methoxybenzoic acid] | – |
| < 100 | Cc1cc(COc2ccc3ccccc3c2)cc(C(=O)O)c1 [Compound 4-12] | – |
| < 100 | O=C(O)c1cccc(COc2ccc(C(F)(F)F)cc2C(F)(F)F)c1 [Compound 1-73] | – |
| 500 to 1000 | Cc1cc(OCc2cccc(C(=O)O)c2)ccc1Cl [Compound 1-72] | – |
| 100 to 500 | CN(C)c1cc(COc2ccc(C(F)(F)F)cc2Cl)cc(C(=O)O)c1 [Compound 38-1, 3-((2-chloro-4-(trifluoromethyl)phenoxy)methyl)-5-(dimethylamino)benzoic acid] | – |
| 500 to 1000 | O=C(N[C@@H](Cc1c[nH]cn1)C(=O)O)c1cccc(COc2ccc(C(F)(F)F)cc2Cl)c1 [Compound 55-2] | – |
| 1000 to 2500 | O=C(O)c1cccc(COc2ccccc2C(F)(F)F)c1 [Compound 1-141] | – |
| < 100 | O=C(O)c1cc(F)cc(COc2ccc(Cl)c(Cl)c2Cl)c1 [Compound 1-123] | – |
| < 100 | Cc1cc(C(F)(F)F)ccc1OCc1cccc(C(=O)O)n1 [Compound 1-127] | – |
| 500 to 1000 | COc1cc(OCc2cccc(C(=O)O)c2)ccc1C(F)(F)F [Compound 1-67] | – |
| 1000 to 2500 | O=C(O)c1cccc(COc2cc(Cl)ccc2Cl)c1 [Compound 1-19] | – |
| < 100 | N#Cc1cc(COc2ccc(C(F)(F)F)cc2Cl)nc(C(=O)O)c1 [Compound 43-1, 6-((2-chloro-4-(trifluoromethyl)phenoxy)methyl)-4-cyano-pyridine-2-carboxylic acid] | – |
| < 100 | O=C(O)c1cccc(COc2ccc(OC(F)(F)F)cc2Cl)n1 [Compound 1-125] | – |
| 1000 to 2500 | COC(=O)c1cc(COc2ccc(Cl)cc2Cl)on1 [Compound 1-15] | – |
| 1000 to 2500 | COc1cc(C(=O)O)ccc1OCc1ccc(Cl)cc1 [Compound 1-20] | – |
| < 100 | FC(F)(F)c1ccc(OCc2cccc(-c3nnn[nH]3)n2)c(Cl)c1 [Compound 17-6] | – |
| > 2500 | O=C(O)c1cccc(COc2ccccc2Cl)c1F [Compound 4-29] | – |
| 1000 to 2500 | O=C(O)c1cccc(COc2cccc(Cl)c2F)c1 [Compound 1-75] | – |
| < 100 | CCOC(=O)c1cccc(COc2ccc(C(F)(F)F)cc2Cl)n1 [Compound 56-2] | – |

| IC50 [1] [nM] | SMILES | further results |
| --- | --- | --- |
| 500 to 1000 | O=C(O)c1cccc(COc2cccc3ccccc23)c1 [Compound 1-49] | – |
| 100 to 500 | Cc1c(COc2ccc(Cl)cc2Cl)cccc1C(=O)O [Compound 4-8] | – |
| 100 to 500 | COc1ccc(OCc2cccc(C(=O)O)c2)cc1 [Compound 1-38] | – |
| < 100 | FC(F)(F)Oc1ccc(OCc2cccc(-c3nnn[nH]3)c2)cc1Cl [Compound 17-10] | – |
| 100 to 500 | N#Cc1cccc(COc2ccc(C(F)(F)F)cc2Cl)c1 [Compound 17-1, 3-((2-chloro-4-(trifluoromethyl)phenoxy)methyl)benzonitrile] | – |
| 1000 to 2500 | O=C(O)c1cccc(COc2ccc3c(c2)CCC3)c1 [Compound 1-42] | – |
| < 100 | O=C(O)c1cccc(COc2ccc(C(F)(F)F)cc2Br)c1 [Compound 1-120] | – |
| 100 to 500 | O=C(N[C@@H](Cc1c[nH]c2ccccc12)C(=O)O)c1cccc(COc2ccc(C(F)(F)F)cc2Cl)c1 [Compound 54-5] | – |
| 1000 to 2500 | COC(=O)c1cccc(COc2ccc(N3CCOCC3)cc2)c1 [Compound 1-7] | – |
| 100 to 500 | COc1cccc(OCc2cccc(C(=O)O)c2)c1 [Compound 1-39] | – |
| 100 to 500 | O=C(O)c1cccc(COc2ccc3sccc3c2)c1F [Compound 4-22] | – |
| 500 to 1000 | O=C(O)c1cccc(COc2cccc(-c3ccc(F)cc3)c2)c1 [Compound 1-69] | – |
| 500 to 1000 | O=C1CC(c2cccc(COc3ccc(C(F)(F)F)cc3Cl)c2)N1 (stereo not shown) [Compound 59-1, 4-(3-((2-chloro-4-(trifluoromethyl)phenoxy)methyl)phenyl)azetidin-2-one] | – |
| 100 to 500 | O=C(O)c1cccc(COc2ccc(OC(F)F)cc2)c1 [Compound 1-135] | – |
| < 100 | c1cc(COc2ccc3ccccc3c2)cc(-c2nnn[nH]2)c1 [Compound 17-5] | – |
| < 100 | O=C(O)c1cccc(COc2ccc3ccccc3c2Cl)c1F [Compound 4-21] | – |
| 100 to 500 | O=C(O)c1cc(COc2ccc(C(F)(F)F)cc2Cl)ccc1Cl [Compound 1-83] | – |
| < 100 | Cc1cc(C(F)(F)F)ccc1OCc1cc(C#N)cc(C(=O)O)c1 [Compound 32-2] | IC50 (read-out: IC50 (10 μM BAR502) nM, MRGPRX4 antagonists versus 10 μM BAR502 agonist): 17 nM |
| < 100 | FC(F)(F)c1ccc(OCc2cccc(-c3nnn[nH]3)c2)cc1Cl [Compound 17-2] | – |
| > 2500 | Cc1ccc(COc2ccc(Cl)cc2Cl)cc1C(=O)O [Compound 8-1, 5-((2,4-dichlorophenoxy)methyl)-2-methylbenzoic acid] | – |
| 1000 to 2500 | Cc1cc(-c2ccccc2)ccc1OCc1cccc(C(=O)O)c1 [Compound 1-51] | – |
| 1000 to 2500 | FC(F)(F)c1ccc(OCc2cccc(-c3cn[nH]n3)c2)c(Cl)c1 [Compound 48-1, 4-(3-((2-chloro-4-(trifluoromethyl)phenoxy)methyl)phenyl)-2H-1,2,3-triazole] | – |
| 1000 to 2500 | CCc1c(COc2ccc(C(F)(F)F)cc2Cl)cccc1C(=O)O [Compound 37-1, 3-((2-chloro-4-(trifluoromethyl)phenoxy)methyl)-2-ethylbenzoic acid] | – |
| 100 to 500 | NC(=O)c1cccc(COc2ccc(C(F)(F)F)cc2Cl)c1 [Compound 45-1, 3-((2-chloro-4-(trifluoromethyl)phenoxy)methyl)benzamide] | – |
| 500 to 1000 | O=C(O)c1cccc(COc2ccc(N3CCCC3)cc2Cl)c1F [Compound 4-24] | – |

| IC50 [1] [nM] | SMILES | further results |
| --- | --- | --- |
| 100 to 500 | O=C(NCCCO)c1cccc(COc2ccc(C(F)(F)F)cc2Cl)c1 [Compound 52-12] | – |
| < 100 | O=C(O)c1cccc(COc2ccc3sccc3c2Cl)c1F [Compound 4-26] | – |
| < 100 | COc1cc(COc2ccc(Cl)cc2Cl)cc(C(=O)O)c1 [Compound 4-5] | – |
| 100 to 500 | NC(=O)CNC(=O)c1cccc(COc2ccc(C(F)(F)F)cc2Cl)c1 [Compound 52-22] | – |
| 1000 to 2500 | CCOc1ccc(OCc2cccc(C(=O)O)c2)cc1 [Compound 1-45] | – |
| 500 to 1000 | Cc1cc(N2CCCC2)ccc1OCc1cccc(C(=O)O)c1F [Compound 4-23] | – |
| 1000 to 2500 | O=C(O)c1cccc(COc2cccc3c2CCCC3=O)c1 [Compound 1-87] | – |
| > 2500 | COc1ccc(C(=O)O)cc1COc1ccc(Cl)cc1Cl [Compound 1-27] | – |
| < 100 | O=C(O)c1cccc(COc2ccc(OC(F)(F)F)cc2Cl)c1F [Compound 4-13] | – |
| 1000 to 2500 | CC(=O)c1ccc(OCc2cccc(C(=O)O)c2)c(Cl)c1 [Compound 1-126] | – |
| < 100 | O=C(O)c1cccc(COc2ccc(OC(F)(F)F)c(Cl)c2)c1 [Compound 1-132] | – |
| 1000 to 2500 | O=C(O)c1cccc(COc2cccc(-c3ccccc3)c2)c1 [Compound 3-3] | – |
| < 100 | Cc1cc(C(F)(F)F)ccc1OCc1cccc(C(=O)O)c1 [Compound 1-16, 3-((2-methyl-4-(trifluoromethyl)phenoxy)methyl)benzoic acid] | – |
| < 100 | N#Cc1cc(COc2ccc(Cl)cc2Cl)cc(C(=O)O)c1 [Compound 5-1, 3-cyano-5-((2,4-dichlorophenoxy)methyl)benzoic acid] | IC50 [2]: 10 nM; IC50 [3]: 23 nM; IC50 [4]: 6 nM; IC50 [5]: 6 nM; IC50 [6]: 27 nM |
| 100 to 500 | CC(C)[C@H](NC(=O)c1cccc(COc2ccc(C(F)(F)F)cc2Cl)c1)C(=O)O [Compound 54-1, (3-((2-chloro-4-(trifluoromethyl)phenoxy)methyl)benzoyl)-L-valine] | – |
| 100 to 500 | O=C(O)c1cccc(COc2ncc(C(F)(F)F)cc2Cl)c1 [Compound 35-1, 3-(((3-chloro-5-(trifluoromethyl)pyridin-2-yl)oxy)methyl)benzoic acid] | – |
| 100 to 500 | COC(=O)c1cccc(COc2ccc(C(F)(F)F)cc2Cl)c1 [Compound 1-2] | – |
| 500 to 1000 | O=C(O)c1cccc(COc2ccc3ccoc3c2)c1 [Compound 1-128] | – |
| < 100 | Clc1ccc(OCc2cccc(-c3nnn[nH]3)c2)c(Cl)c1Cl [Compound 17-4] | IC50 [2]: 5 nM; IC50 [3]: 6 nM; IC50 [4]: 8 nM; IC50 [5]: 6 nM; IC50 [6]: 7 nM |
| 100 to 500 | Cc1cc(OCc2cccc(C(=O)O)c2)ccc1C#N [Compound 1-145] | – |
| 100 to 500 | O=C(O)c1cccc(COc2ccc(Cl)cc2)c1 [Compound 1-21] | – |
| < 100 | O=C(O)c1cc(Cl)cc(COc2ccc(Cl)cc2Cl)c1 [Compound 2-1, 3-chloro-5-((2,4-dichlorophenoxy)methyl)benzoic acid] | – |
| 100 to 500 | CS(=O)(=O)NC(=O)c1cccc(COc2ccc(C(F)(F)F)cc2Cl)c1 [Compound 52-20] | – |
| 100 to 500 | CNC(=O)c1cccc(COc2ccc(C(F)(F)F)cc2Cl)c1 [Compound 52-26] | – |
